Experimental data reported in patent US10307412B2, “Quinoline derivative against non-small cell lung cancer” (CHIA TAI TIANQING PHARMACEUTICAL GROUP CO., LTD., priority 2014, dated 2019).
Where a name gives a salt, the structure may show the parent alone.

Columns and labels:
Format in all cases: in vivo, human
[1] = test system: patients with non-small cell lung cancer; assay: Randomized, double-blind, placebo-controlled trial in non-small cell lung cancer patients (Example 3); conditions: for progression-free survival (PFS, month) Mean / progression-free survival (PFS, month) P25 / progression-free survival (PFS, month) P50 / progression-free survival (PFS, month) P75: 12 mg once daily, two weeks on, one week rest
Excerpt: (§1) In this paper, progression-free survival P25 refers to the time that 75% of the patients who participated in the disease had no progress in disease; Progressive survival P50 refers to the time that 50% of the patients who participated in the disease had no progress in disease; Progression-free survival P75 refers to the time that 25% of the patients who participated in the disease had no progress in disease; the progression-free survival was the mean value of the progression-free survival of the patient who participated in the results of statistics.
Randomized, double-blind, placebo-controlled trials were performed in patients with measurable lesions which were pathologically diagnosedas non-small cell lung cancer, who had received second-line or higher-line therapy, or those who were intolerable to aforementioned treatment, and who had been treated with other cytotoxic drugs, radiotherapy or surgery for more than four weeks. In this study, efficacy of the capsules of dihydrochloride of compound I was initially evaluated against placebo in the treatment of patients with non-small cell lung cancer. The primary outcome of the evaluation was progression-free survival (PFS). 117 patients with non-small cell lung cancer enrolled in this study, whose age was between 18-70. Among them, 57 patients were randomized into placebo group and 60 patients randomized into dihydrochloride of compound I group.
The above-mentioned eligible non-small cell lung cancer patients were treated with dihydrochloride of compound I/placebo for clinical trials. They were administered 12 mg/0 mg of compound I/placebo individually once daily for consecutive two weeks followed by one-week rest from administration, namely the period of a cycle regimen was three weeks (21 days), those who were ineligible for continuous therapy or whose disease were progressive disease (PD) according to the reassessment were excluded from the medication.
Results: A total of 117 patients with non-small cell lung cancer were enrolled in the study, including 57 patients randomized into placebo group and 60 patients randomized into dihydrochloride of compound I group. 43 patients in placebo group and 30 patients in dihydrochloride of compound I group were involved in data statistics, the remaining patients who dropped out or excluded from the study or those were still in follow-up were not included in the statistics.

[2] = test system: non-small cell lung cancer squamous cell carcinoma; assay: Case report, non-small cell lung cancer squamous cell carcinoma (Example 8)
Procedure: EML4-ALK fusion gene had no mutation, EGFR gene had no mutation by gene detection.
From Mar. 26, 2013 to Jun. 5, 2013, the patient was treated with cisplatin and gemcitabine chemotherapy for 4 cycles, and the best efficacy was SD. After the end of the chemotherapy, they were treated with the local radiotherapy of the lung for 1 cycle, during which the adverse reactions was light. From Sep. 9, 2013 to Oct. 6, 2013, the patient was treated with cisplatin and gemcitabine chemotherapy for 2 cycles. December 2013, disease was found progression by review of CT. From Mar. 24, 2014, the patient was treated with docetaxel chemotherapy for 1 cycle. […] On Dec. […] Double lungs had multiple pulmonary bullae, which changed little than before; 3. Double lungs had inflammation, the scope of which was smaller than before; 4. Left clavicle, mediastinal and right hilar had multiple lymph nodes, which were slightly larger than before. From Jan. 7, 2015 to Jan. […] On Mar. […] On Mar. 6, 2015, the patient was treated with oral Tiggio treatment. […] On Jun.
From Jun. 4, 2015, the patient received dihydrochloride of compound I capsule treatment that one cycle plan was 12 mg dose once, q.d., and continuous medication for 2 weeks, and then suspended medication for 1 week. On Jun.

[3] = test system: right lower lung adenocarcinoma (T4N2M1b, stage IV); assay: Case report, stage IV lung adenocarcinoma (Example 5); conditions: for sum of the longest diameter of the two measurable lesions: baseline 45.7 mm
Procedure: 3, 2013, the capsule of dihydrochloride of compound I was taken orally at 12 mg once daily with repeated treatment cycles (treatment given for consecutive two weeks followed by one week of rest is one treatment cycle). Treatment toxicities were assessed at 4-week follow-up, and the number of blood cells and blood chemistry were analyzed every two or three weeks, treatment response was assessed based on CT scan as well.

[4] = test system: non-small cell lung cancer; assay: Case report, non-small cell lung cancer, EGFR gene no mutation (Example 7)
Excerpt: From Jun. […] From Oct. […] On Jan. […] From Jan. […] On Jul.

[5] = test system: left upper lobe lung adenocarcinoma (T4N3M1a, stage IV); assay: Case report, stage IV lung adenocarcinoma (Example 6); conditions: for sum of the diameter of two measurable target lesions: baseline 58 mm
Procedure: A retired person, smoking for 30 years (20 cigarettes/day), underwent thyroid adenoma resection 10 years ago. […] From Aug. 1, 2013 to Sep. […] From Dec. 26, 2013 to Jan. […] On Jan. […] On Feb.
From Feb. 28, 2014, the capsule of dihydrochloride of compound I was taken orally at 12 mg once daily with repeated treatment cycles (treatment given for consecutive two weeks followed by one week of rest is one treatment cycle).

[6] = test system: patients with lung adenocarcinoma; assay: Randomized, double-blind, placebo-controlled trial in lung adenocarcinoma patients (Example 4)
Excerpt: as §1
Randomized, double-blind, placebo-controlled trials were performed in patients with measurable lesions which were pathologically diagnosedas lung adenocarcinoma, who had received second-line or higher-line therapy, or those who were intolerable to the aforementioned treatment, and who had been treated with other cytotoxic drugs, radiotherapy or surgery for more than four weeks. In this study, efficacy of the capsules of dihydrochloride of compound I was initially evaluated against placebo in the treatment of patients with lung adenocarcinoma. The primary outcome of the evaluation was progression-free survival (PFS). 104 patients with lung adenocarcinoma enrolled in this study, whose age was between 18-70. Among them, 50 patients were randomized into placebo group and 54 patients randomized into dihydrochloride of compound I group.
The above-mentioned eligible lung adenocarcinoma patients were treated with dihydrochloride of compound I/placebo for clinical trials. They were administered 12 mg/0 mg of compound I/placebo individually once daily for consecutive two weeks followed by one-week rest from administration, namely the period of a cycle regimen was three weeks (21 days), those who were ineligible for continuous therapy or whose disease were progressive disease (PD) according to the reassessment were excluded from the medication.
Results: A total of 104 patients with lung adenocarcinoma were enrolled in the study, including 50 patients randomized into placebo group and 54 patients randomized into dihydrochloride of compound I group. 37 patients in placebo group and 30 patients in dihydrochloride of compound I group were involved in data statistics, the remaining patients who dropped out or excluded from the study or those were still in follow-up were not included in the statistics.

[7] = after ten treatment cycles (210 days)
[8] = after three-week administration
[9] = lung adenocarcinoma, 12 mg once daily, two weeks on, one week rest

COc1cc2c(Oc3ccc4[nH]c(C)cc4c3F)ccnc2cc1OCC1(N)CC1 [dihydrochloride of compound I, 1-[[[4-(4-fluoro-2-methyl-1H-indol-5-yl)oxy-6-methoxyquinolin-7-yl]oxy]methyl]cyclopropylamine dihydrochloride] was tested, and the “progression-free survival (PFS, month) Mean” value ([1]; age > 60) was 5.84 month, the “progression-free survival (PFS, month) P25” value ([1]; age > 60) was 2.83 month and the “progression-free survival (PFS, month) P50” value ([1]; age > 60) was 6.40 month. The “progression-free survival (PFS, month) P75” value ([1]; age > 60) was 8.30 month, the “progression-free survival (PFS, month) Mean” value ([1]; age ≤ 60) was 4.48 month and the “progression-free survival (PFS, month) P25” value ([1]; age ≤ 60) was 2.77 month. For the same molecule, the “progression-free survival (PFS, month) P50” value ([1]; age ≤ 60) was 4.30 month, the “progression-free survival (PFS, month) P75” value ([1]; age ≤ 60) was 6.17 month and the “effect on progression-free survival versus placebo” value ([1]; patients with non-small cell lung cancer) was “significantly prolong progression-free survival”. For the same molecule, the target lesion sum ([2]; Jul. 15, 2015) was 63 mm, the target lesion sum ([2]; Oct. 16, 2015) was 56 mm and the target lesion sum ([2]; Sep. 8, 2015) was 57 mm. The “reduction of total target lesions versus baseline” value ([2]; after 1 cycle (Jun. 25, 2015)) was 10 mm, the total target lesions ([2]; after 1 cycle (Jun. 25, 2015)) was 66 mm and the “tolerability of adverse reactions” value ([2]; until application date) was “could tolerate adverse reactions”. For the same molecule, the tolerance ([3]; 12 mg once daily orally) was “well tolerated”, the “reduction of sum of the longest diameter” value [3, 7] was 43.1% and the “sum of the longest diameter of the two measurable lesions” value [3, 7] was 26 mm. The “reduction of sum of the longest diameter” value ([3]; after treatment for 6 weeks) was 31.22%, the “sum of the longest diameter of the two measurable lesions” value ([3]; after treatment for 6 weeks, 12 mg once daily orally) was 31.43 mm and the “blood routine examinations including the number of blood cells” value ([3]; during treatment) was “not significantly altered”. The “left temporal lobe nodules, head enhancement CT” value ([4]; Aug. 20, 2015) was “slightly smaller than baseline”, the “tolerability of adverse reactions” value ([4]; until application date) was “could tolerate adverse reactions” and the tolerance ([5]; 12 mg once daily orally) was “generally well tolerated”. The “lesion in anterior segment of left upper lobe lung, diameter” value (shortened to “lesion … of left upper lobe lung, diameter”) ([5]; after 15-week administration) was 10 mm, the “lesion in mediastinal lymph node, diameter” value ([5]; after 15-week administration) was 15 mm and the “reduction of sum of target lesions” value ([5]; after 15-week administration) was 56.9%. The “sum of the diameter of two measurable target lesions” value ([5]; after 15-week administration) was 25 mm, the “lesion … of left upper lobe lung, diameter” value ([5]; after nine-week administration) was 10 mm and the “lesion in mediastinal lymph node, diameter” value ([5]; after nine-week administration) was 16 mm. For the same molecule, the “reduction of sum of target lesions” value ([5]; after nine-week administration) was 55.2%, the “sum of the diameter of two measurable target lesions” value ([5]; after nine-week administration) was 26 mm and the “reduction of sum of target lesions” value [5, 8] was 37.9%. For the same molecule, the “lesion in mediastinal lymph node, diameter” value ([5]; after three-week administration, baseline 21 mm) was 18 mm, the “lesion … of left upper lobe lung, diameter” value ([5]; after three-week administration, baseline 37 mm) was 18 mm and the “sum of the diameter of two measurable target lesions” value [5, 8] was 36 mm. The blood changes ([5]; during treatment) was “not significant”, the heart toxicity ([5]; during treatment) was “no heart toxicity related to the drug” and the “progression of non-target lesions and new lesions” value ([5]; during treatment) was “not observed”. The “response and clinical performance” value ([5]; given for 279 days, 14th treatment cycle) was “sustained response against tumor and good clinical performance”, the “lesion … of left upper lobe lung, diameter” value ([5]; six weeks administration) was 14 mm and the “lesion in mediastinal lymph node, diameter” value ([5]; six weeks administration) was 15 mm. For the same molecule, the “reduction of sum of target lesions” value ([5]; six weeks administration) was 50%, the “sum of the diameter of two measurable target lesions” value ([5]; six weeks administration) was 29 mm and the “lesion … of left upper lobe lung, diameter” value ([5]; twelve weeks administration) was 10 mm. The “lesion in mediastinal lymph node, diameter” value ([5]; twelve weeks administration) was 16 mm, the “reduction of sum of target lesions” value ([5]; twelve weeks administration) was 55.2% and the “sum of the diameter of two measurable target lesions” value ([5]; twelve weeks administration) was 26 mm. The “progression-free survival (PFS, month) Mean” value [6, 9] was 4.77 month, the “progression-free survival (PFS, month) P25” value [6, 9] was 2.77 month and the “progression-free survival (PFS, month) P50” value [6, 9] was 4.33 month. For the same molecule, the “progression-free survival (PFS, month) P75” value [6, 9] was 6.87 month and the “effect on progression-free survival versus placebo” value ([6]; patients with lung adenocarcinoma) was “significantly prolong progression-free survival”.
For CC(=O)O[C@@]12CO[C@@H]1C[C@H](O)[C@@]1(C)C(=O)[C@H](O)C3=C(C)[C@@H](OC(=O)[C@H](O)[C@@H](NC(=O)OC(C)(C)C)c4ccccc4)C[C@@](O)([C@@H](OC(=O)c4ccccc4)[C@H]21)C3(C)C [docetaxel, reference compound], the “adverse reactions after prior chemotherapy (medical history)” value ([2]; in vivo) was “bone marrow suppression, oral infection, pneumonia appeared”.
In the case of “gemcitabine/cisplatin [reference compound]”, the “outcome of prior therapy (medical history)” value ([5]; one treatment cycle each) was “unsatisfactory”.
